Results from patent US20240140970A1, “A […], AND PREPARATION METHOD AND USE THEREOF” (ASCENTAWITS PHARMACEUTICALS, LTD., priority 2021, published 2024).
Values joined by “and” are separate entries in the source; they are usually repeats but may differ in a detail not shown here. Equal entries are not always repeated.

Columns and labels:
[1] = Stability of AST-2660 in human plasma at −20° C. and −70° C. for one month (LC-MS/MS); type: in vitro ADME
Description: The detection method established in example 4 was used to detect the content of AST-2660 in the human plasma to be tested.
Matrix: the mixed normal human plasma containing anticoagulant (K2 EDTA) • a: the internal standard working solution: AST-2660-D8 was taken, added with methanol, and diluted to prepare a solution containing about 100 ng per 1 ml. • b: the solution to be tested (no internal standard compound was added to the solution to be tested at this time): it was obtained by taking a blood sample to be tested. • c: the standard working solution (no internal standard compound was added to the standard working solution at this time): an appropriate amount of AST-2660 was taken and accurately weighed, dissolved with methanol, and diluted to prepare a solution containing about 1.0 mg per 1 ml, which was used as the standard working stock solution. An appropriate amount of the standard working stock solution was taken, added with the matrix and diluted to prepare standard working solutions with different concentrations containing about 200 ng, 160 ng, 100 ng, 50 ng, 10 ng, 2.0 ng, 1.0 ng and 0.5 ng per 1 ml, respectively. (The solution was stored at −70° C.) • d: the quality control sample solution: an appropriate amount of AST-2660 was taken and accurately weighed, dissolved with methanol, and diluted to prepare a solution containing about 10 μg per 1 ml, which was used as the quality control working stock solution. An appropriate amount of the quality control working stock solution was taken, added with matrix to prepare quality control working solutions with different concentrations containing about 150 ng, 60 ng, 15 ng, 1.5 ng and 0.5 ng per 1 ml. (The solution was stored at −70° C.)
The solution to be tested, the standard working solution and the quality control sample solution were thawed at room temperature and mixed uniformly. 100 μl of the above solution was respectively taken, added with 20 μl of the internal standard and 500 μl of methanol, and vortexed for 3 minutes to mix uniformly, and then centrifuged for 10 minutes at 2143 rcf. 450 μl of the supernatant was taken and dried, and 150 μl of methanol was added for redissolution, and sonicated. Then the plates were centrifuged for 3 minutes at 4° C. It was obtained by taking […] of supernatant.
Liquid phase conditions: A SHARC 1, 3 μm, 2.1*50 mm or chromatograph column with equivalent performance was used; the mobile phase was a methanol solution comprising low content of ammonium acetate; the mobile phase B was acetonitrile; the gradient elution was performed according to the following table, column temperature: 20° C.; injection volume: 5 μl.
Mass spectrometric conditions: electrospray ion source with negative ion scanning mode; spray potential: −4500 V; ion source temperature: 500° C.; collision energy (CE): −22 eV; declustering potential (DP): −55V; entrance potential (EP): −10V; collision chamber exit potential (CXP): −16V; dwell time: 100 ms; high purity nitrogen was used for all gases; AST-2660 ions pairs: m/z 147.0→m/z 62.9; the internal standard AST-2660-D8 ion pairs: m/z 155.0→m/z 62.9.
The AST-2660 standard working solution, blank sample, zero concentration sample, sample solution to be tested and quality control sample solution with different concentrations after extraction were respectively taken and injected into LC-MS/MS for detection.
(§1) Calculation results: the relationship function y=f (x) of the ratio of the peak area of the AST-2660 to that of the internal standard was obtained from AST-2660 standard working solutions with different concentrations. The ratio of the peak area of the AST-2660 to that of the internal standard was determined from the solution to be tested after extraction, and substituted into the relationship function y=f (x) to calculate the concentration of the metabolite II in the solution to be tested.

[2] = Stability of treated (extracted) human urine samples of AST-2660 at room temperature (LC-MS/MS); type: physicochemical; details: 94 hours at room temperature
Description: The detection method established in example 6 was used to detect the content of AST-2660 in the human urine to be tested.
Matrix: the mixed normal human urine containing an additive Na2HPO4·12H2O. • a: the internal standard working solution: AST-2660-D8 was taken, dissolved with methanol, and diluted to prepare a solution containing about 100 ng per 1 ml. • b: the solution to be tested (no internal standard compound was added to the solution to be tested at this time): it was obtained by taking a blood sample to be tested. • c: the standard working solution (no internal standard compound was added to the standard working solution at this time): an appropriate amount of AST-2660 was taken and accurately weighed, dissolved with methanol and diluted to prepare a solution containing about 1.0 mg per 1 ml, which was used as the standard working stock solution. […]
as §1, with “area of AST-2660 to” for “area of the AST-2660 to”

[3] = QC1 nominal 1.50 ng/ml, 28 days at −20° C.
[4] = QC1 nominal 1.50 ng/ml, 28 days at −70° C.
[5] = QC4 nominal 150 ng/ml, 28 days at −20° C.
[6] = QC4 nominal 150 ng/ml, 28 days at −70° C.

O=P([O-])(N1CC1)N1CC1.[Na+] [AST-2660]
change of AST-2660 content (in words) ([1]; 28 days of storage at −20° C.): reduced significantly | change of AST-2660 content (in words) ([1]; 28 days of storage at −70° C.): almost no reduction | RE (%) vs nominal ([1]; DilQC (10-fold dilution) nominal 1500 ng/ml, 28 days at −20° C.): −32.5% | RE (%) vs nominal ([1]; DilQC (10-fold dilution) nominal 1500 ng/ml, 28 days at −70° C.): −6.2% | AST-2660 concentration, Mean value [1, 3]: 1.11 ng/mL | AST-2660 concentration, single replicates [1, 3]: 1.01 ng/mL and 1.03 ng/mL and 1.14 ng/mL and 1.25 ng/mL | RE (%) vs nominal [1, 3]: −26.2% | AST-2660 concentration, Mean value [1, 4]: 1.53 ng/mL | AST-2660 concentration, single replicates [1, 4]: 1.52 ng/mL and 1.53 ng/mL and 1.59 ng/mL and 1.49 ng/mL | RE (%) vs nominal [1, 4]: 2.2% | AST-2660 concentration, Mean value [1, 5]: 146 ng/mL | AST-2660 concentration, single replicates [1, 5]: 147 ng/mL and 141 ng/mL and 149 ng/mL and 145 ng/mL | RE (%) vs nominal [1, 5]: −3.0% | AST-2660 concentration, Mean value [1, 6]: 145 ng/mL | AST-2660 concentration, single replicates [1, 6]: 142 ng/ml (2×) and 150 ng/ml and 145 ng/ml | RE (%) vs nominal [1, 6]: −3.5% | stability (in words) [2]: stable
